The values that follow come from patent US9125407B2, “Compositions comprising an aryl pyrazole and a substituted imidazole, methods and uses thereof” (MERIAL LIMITED, priority 2011, dated 2015).

Data set [1] relates to Rhipicephalus sanguineus. Kind of data set: Tick contact behavioral assay (TCBA), excitatory response in glass vials. As to conditions: 24 h post-treatment. The method, then: Another screening method used to test compounds of the present invention is the tick contact behavioral assay (TCBA). Compounds that elicit excitatory activity in ticks should increase their motility, thus increasing the parasite's chances of encountering fipronil if fipronil is present.
The TCBA was performed on Rhipicephalus sanguineus in glass vials. Briefly, a paper disc is treated with the desired amount of test compound and placed into the vial with approximately ten ticks. The ticks are observed for excitatory response but are not otherwise stimulated for evaluation.
From these observations, an EC50 for excitatory response is established. Observations were made at 4 h and 24 h post-treatment. […]

Data set [2] has as its system Rhipicephalus sanguineus. As to the kind of experiment: Tick mortality in combination with fipronil (25 ppm), 100% mortality at 6 hours. The following applies: dose of compound combined with fipronil 25 ppm producing 100% mortality in 6 hours. The method, then:
Observations were made at 4 h and 24 h post-treatment.
The compounds were then combined with fipronil (25 ppm) and tested for 100% mortality at 6 hours.

The conditions of data set [3]: 14C radiolabeled drug, spot-on, beagle dogs; cited from earlier work.
For data set [4] the following is noted: pH about 5.0 to about 6.0; cited from earlier work.

For `Cc1cccc2c1C(c1ncc[nH]1)CC2` (centres unmarked) [1H-imidazole, 2-(2,3-dihydro-7-methyl-1H-inden-1-yl)], in the data set on Rhipicephalus sanguineus [1], the “TCBA Assay EC50 (@ 24 h, ppm)” value was found to be 6 ppm.
As for `Cc1cccc(C(C)c2ncc[nH]2)c1C` (centres unmarked) [demiditraz], the “Fipronil combination (25 ppm) (6 h mortality) Dose (ppm)” value (“Fipronil combination (25 ppm)” below) with Rhipicephalus sanguineus [2] stood at 12.5 ppm. In the data set on Rhipicephalus sanguineus [1], the “TCBA Assay EC50 (@ 24 h, ppm)” value amounted to 5 ppm.
For `Cc1cccc2c1CCC2c1ncc[nH]1` (centres unmarked) [ML-449, 1H-imidazole, 2-(2,3-dihydro-4-methyl-1H-inden-1-yl)] the same measures were 25 ppm and 6 ppm.
Turning to `N#Cc1nn(-c2c(Cl)cc(C(F)(F)F)cc2Cl)c(N)c1[S+]([O-])C(F)(F)F` (centres unmarked) [fipronil, 5-amino-3-cyano-1-(2,6-dichloro-4-trifluoromethylphenyl)-4-trifluoromethylsulfinylpyrazole], in data set [3], the “time persistently detected in whole skin after treatment” value is “up to 56 days”.
Regarding `Cc1ccc(/N=C/N(C)/C=N/c2ccc(C)cc2C)c(C)c1` [Amitraz, amitraz], the “stability at pH of about 5.0 to about 6.0” value in data set [4] is “degrade”. Besides, the “Fipronil combination (25 ppm)” value with Rhipicephalus sanguineus [2] came out at 12.5 ppm. Further, the “TCBA Assay EC50 (@ 24 h, ppm)” value in the data set on Rhipicephalus sanguineus [1] stood at 1.6 ppm.
As for `Cc1cccc2c1CCCC2c1ncc[nH]1` (centres unmarked) [2-(5-methyl-1,2,3,4-tetrahydronaphthalen-1-yl)-1H-imidazole], in the data set with Rhipicephalus sanguineus [2], the “Fipronil combination (25 ppm)” value is on record as 25 ppm. In the data set with Rhipicephalus sanguineus [1], the “TCBA Assay EC50 (@ 24 h, ppm)” value is listed as 6 ppm.
